From PubChem BioAssay AID1963961 (Molecular Pharmacology Branch, DTP, NCI, 2024)

Test system: K98450-129-R-PDC multicell spheroids, viability
Assay: Anticancer human tumor K98450-129-R-PDC patient-derived colon adenocarcinoma cell line growth inhibition [PI3K]
Conditions: for IC50: curve of first compound; for viability, T/C: stronger effect = lower value
Source text: Combinatorial screen of targeted agents with the PI3K inhibitors inavolisib, alpelisib, duvelisib, and copanlisib in multi-cell type tumor spheroids
A high-throughput screen of multi-cell type tumor spheroids was designed to identify active combinations of targeted small molecules and PI3K pathway inhibitors. Complex spheroids include a stromal component modeled by human endothelial cells (HUVEC) and fibroblasts modeled by human mesenchymal stem cells (MSCs). The concentration ranges selected for each drug and investigational agent were based upon clinically achievable concentrations if the clinical Cmax of the agent was known.
Compounds. The drugs and investigational agents: inavolisib (NSC800729), alpelisib (NSC765974), duvelisib (NSC772469), copanlisib (NSC816437), ipatasertib (NSC767898), afuresertib (NSC778305), talazoparib (NSC767125), sapanisertib (NSC764658), selumetinib (NSC741078), tovorafenib (DAY101, NSC766906), vemurafenib (NSC761431), ravoxertinib (NSC781343), sotorasib (NSC818433), MRTX1133 (NSC 836407), abemaciclib (NSC 768073), palbociclib (NSC758247), venetoclax (NSC 766270), SY5609 (NSC837396), enzalutamide (NSC755605), and darolutamide (NSC825331), were obtained from the National Cancer Institute (NCI) Developmental Therapeutics Program Chemical Repository. The FDA-approved anticancer drug set is available from the NCI Developmental Therapeutics Program. […] The stock solutions were prepared in dimethyl sulfoxide (DMSO, Sigma-Aldrich, St. Louis, MO, cat. D2650) at 800-fold the tested concentration and stored at -70 degrees C prior to their use. All drugs and investigational agents were tested over a range starting from a high concentration at or near the clinical Cmax and decreasing in half-log increments. If the clinical Cmax for an agent had not been determined, the highest concentration tested was 10 microM.
Cell Culture. All cells were maintained in an incubator at 37 degrees C and 5% CO2 with 95% humidity. The PDC lines were cultured according to standard operating procedures established by the NCI PDMR (https://pdmr.cancer.gov/sops/default.htm). All PDCs were thawed and cultured in Matrigel-coated flasks prepared with a working solution of 1X Ham's F-12 nutrient mix, without supplementation (Invitrogen, Waltham, MA, cat. 11765054), 100 U/mL penicillin-streptomycin (Invitrogen, cat. 15140122), and 2.5% Matrigel (Corning Inc., Corning, NY, cat. 354248) for the first three passages. The 354836-022-R-J1-PDC, 475296-252-R-J1-PDC, and 997726-040-R-J2-PDC lines were cultured in 6A media, which includes advanced DMEM/F-12 (Thermo Fisher Scientific, cat. 12634028), 10 mM HEPES (Thermo Fisher Scientific, cat. 15630080), 1X GlutaMAX supplement (Thermo Fisher Scientific, cat. 35050061), 0.1 mg/mL primocin (InvivoGen, San Diego, CA, cat. ant-pm-2), 10% defined fetal bovine serum, heat inactivated (HyClone Laboratories Inc., Logan, UT, cat. SH30070.03HI), 50% L-WRN conditioned media (ATCC, cat. CRL-3276), 1.25 mM N-Acetyl-L-cysteine (Sigma-Aldrich, cat. A9165), 10 mM nicotinamide (Sigma-Aldrich, cat. N0636), 1X B-27 supplement (Thermo Fisher Scientific, cat. 17504044), 1X N-2 supplement (Thermo Fisher Scientific, cat. 17502048), and 10 microM Y-27632 dihydrochloride (Tocris Bioscience, Bristol, United Kingdom, cat. 1254). The 624824-186-R-J2-PDC line was cultured in 6C/Colon 1B media, which includes all 6A media components plus 50 ng/mL human EGF recombinant protein (Thermo Fisher Scientific, cat. PHG0311). […]
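Also: spheroids exposed to agents for seven days before read-out.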

IC50 (second compound 0.0316 µM): > 10 µM
IC50 (second compound 0.1 µM): > 10 µM
IC50 (second compound 0.316 µM): > 10 µM
IC50 (second compound 1 µM): > 10 µM
IC50 (second compound 3.16 µM): > 10 µM
IC50 (second compound 10 µM): > 10 µM
SMILES: Cn1ncc(Cl)c1-c1cc(C(=O)NC(CN)Cc2cccc(F)c2)sc1Cl (configuration not stated) + Cc1nc(NC(=O)N2CCCC2C(N)=O)sc1-c1ccnc(C(C)(C)C(F)(F)F)c1
viability, T/C (second compound 0.0316 µM, first compound 0.0316 µM): 97.8%
viability, T/C (second compound 0.0316 µM, first compound 0.1 µM): 95%
viability, T/C (second compound 0.0316 µM, first compound 0.316 µM): 109%
viability, T/C (second compound 0.0316 µM, first compound 1 µM): 93.1%
viability, T/C (second compound 0.0316 µM, first compound 3.16 µM): 88.9%
viability, T/C (second compound 0.0316 µM, first compound 10 µM): 74.3%
viability, T/C (second compound 0.1 µM, first compound 0.0316 µM): 109%
viability, T/C (second compound 0.1 µM, first compound 0.1 µM): 99.4%
viability, T/C (second compound 0.1 µM, first compound 0.316 µM): 99.7%
viability, T/C (second compound 0.1 µM, first compound 1 µM): 90.8%
viability, T/C (second compound 0.1 µM, first compound 3.16 µM): 89.2%
viability, T/C (second compound 0.1 µM, first compound 10 µM): 78.3%
viability, T/C (second compound 0.316 µM, first compound 0.0316 µM): 101%
viability, T/C (second compound 0.316 µM, first compound 0.1 µM): 93.1%
viability, T/C (second compound 0.316 µM, first compound 0.316 µM): 91.9%
viability, T/C (second compound 0.316 µM, first compound 1 µM): 92.1%
viability, T/C (second compound 0.316 µM, first compound 3.16 µM): 91.3%
viability, T/C (second compound 0.316 µM, first compound 10 µM): 76.9%
viability, T/C (second compound 1 µM, first compound 0.0316 µM): 94%
viability, T/C (second compound 1 µM, first compound 0.1 µM): 91%
viability, T/C (second compound 1 µM, first compound 0.316 µM): 97.1%
viability, T/C (second compound 1 µM, first compound 1 µM): 89.6%
viability, T/C (second compound 1 µM, first compound 3.16 µM): 91.7%
viability, T/C (second compound 1 µM, first compound 10 µM): 72.9%
viability, T/C (second compound 3.16 µM, first compound 0.0316 µM): 82.9%
viability, T/C (second compound 3.16 µM, first compound 0.1 µM): 85.1%
viability, T/C (second compound 3.16 µM, first compound 0.316 µM): 86.8%
viability, T/C (second compound 3.16 µM, first compound 1 µM): 80.4%
viability, T/C (second compound 3.16 µM, first compound 3.16 µM): 86.2%
viability, T/C (second compound 3.16 µM, first compound 10 µM): 63.8%
viability, T/C (second compound 10 µM, first compound 0.0316 µM): 66.9%
viability, T/C (second compound 10 µM, first compound 0.1 µM): 69.6%
viability, T/C (second compound 10 µM, first compound 0.316 µM): 74.1%
viability, T/C (second compound 10 µM, first compound 1 µM): 72.5%
viability, T/C (second compound 10 µM, first compound 3.16 µM): 78.5%
viability, T/C (second compound 10 µM, first compound 10 µM): 52.2%
